Data from paper PMC6571560, “Aldose Reductase, Protein Glycation Inhibitory and Antioxidant of Peruvian Medicinal Plants: The Case of Tanacetum parthenium L. and Its Constituents” (Molecules, 2019).

Key:
[1] = system: advanced glycation end products (AGEs) formation; assay: Bovine serum albumin-methylglyoxal assay for AGEs formation; type: biochemical; details: for IC50: table head prints no unit, μM
Protocol: BSA (50 mg/mL) was incubated with methylglyoxal (100 mM) in sodium phosphate buffer (0.1 M, pH 7.4) in the presence of various concentrations of the compounds (including a control) at 37 °C for 24 h. Then, the fluorescence intensity was measured at an excitation wavelength of 355 nm and an emission wavelength of 460 nm with a luminescence spectrometer (LS50B, Perkin–Elmer Ltd., Buckinghamshire, UK). […] All reagents and samples were sterilized by filtration through […] membrane filters.

[2] = system: sorbitol accumulation in rat lens; assay: Lens culture and sorbitol accumulation in rat lens; type: cell-based; details: compound 5 μg/mL, mean ± SD (n = 3); for Sorbitol Content (mg)/lens Wet Weight (g): rat lens cultured 6 d in 30 mM glucose; for inhibition at 5 µg/mL: rat lens cultured in 30 mM glucose
Protocol: Lenses isolated from 10-week-old Sprague-Dawley rats were cultured for 6 d in TC-199 medium that contained 15% fetal bovine serum, 100 units/mL penicillin, and 0.1 mg/mL streptomycin, under sterile conditions and an atmosphere of 5% CO2 and 95% air at 37 °C. The lenses were divided into three groups and cultured in medium containing 30 mM glucose and active compounds. Each lens was placed in a well containing 2.0 mL of medium. Sorbitol was determined by HPLC after derivatization by reaction with benzoic acid to a form of a fluorescent compound [37].

[3] = molecular target: T1, rat lens aldose reductase (RLAR) (Rattus norvegicus, UniProt P07943); assay: Rat lens aldose reductase (RLAR) inhibition, NADPH absorbance decrease at 340 nm; type: biochemical; details: for IC50: mean ± SEM, three independent experiments in duplicate
T1 construct: The supernatant was collected and used as the RLAR; from tissue; host or cells: lenses of Sprague-Dawley rats (homogenate supernatant)
Protocol: Crude RLAR was prepared as follows: lenses were removed from Sprague-Dawley rats (Weighing 250–280 g) and frozen at −70 °C until use. Non-cataractous transparent lenses were pooled, and a homogenate was prepared in 0.1 M phosphate-buffered saline (pH 6.2). The RLAR homogenate was then centrifuged at 10,000× gfor 20 min at 4 °C in a refrigerated centrifuge. The supernatant was collected and used as the RLAR [35]. This experiment was approved by the University of Hallym Animal Care and Use Committee (Registration Number: Hallym R2016-60). All of the procedures were conducted in accordance with the ‘Guide for Care and Use of Laboratory Animals’, published by the National Institutes of Health.
A total of 531 μL of 0.1 M potassium buffer (pH 7.0), 90 μL of NADPH solution (1.6 mM in potassium buffer), 90 μL of RLAR homogenate (6.5 U/mg), 90 μL of ammonium sulfate solution (4 M in potassium buffer), and 90 μL of DL-glyceraldehyde (25 mM in potassium buffer) were mixed with 9 μL of different concentrations of samples (1–0.1 mg/mL in dimethylsulfoxide (DMSO), Less than 1% in total mixture) in a cuvette, and the activity of RLAR was assessed spectrophotometrically by measuring the decrease in NADPH absorbance at 340 nm for 3 min using a spectrophotometer (SECOMAM, Ales Cedex, France).

DPPH-HPLC assay = details: peak in TP extract after reaction with DPPH, HPLC 254 nm
Protocol: The antioxidant compounds from TP were profiled with a DPPH-HPLC assay. TP (90 µL; 10.0 mg/mL) was mixed with 540 µL of DPPH solution (0.32 mM), and the mixed solution was then incubated at 37 °C for 20 min in a dark room. The solution was then filtered through a 0.45 µm membrane filter and then subjected to HPLC analysis. The HPLC conditions were the same as those described in the HPLC analysis section.

[4] = molecular target: T2, human recombinant aldose reductase (HRAR) (Homo sapiens, UniProt P15121); assay: Human recombinant aldose reductase ultrafiltration HPLC assay; type: binding; details: peak in TP extract (0.1 mg/mL) incubated with 3.9 μM HRAR
T2 construct: purchased Wako Pure Chemical Industries (Osaka, Japan)
Protocol: The inhibitory compounds of HRAR from TP were profiled by an AR ultrafiltration assay. Specifically, TP (at a final concentration of 0.1 mg/mL) was incubated with 0.6 M ammonium sulfate and 3.9 μM HRAR in a total volume of 300 μL at 37 °C for 30 min. Then, the incubated mixture was filtered by using a Microcon YM-10 centrifugal filter unit by centrifugation at 5167× g for 30 min at room temperature. The filtrate was subsequently analyzed by using the methods mentioned in the HPLC analysis section. A sample incubated without HRAR was used as a control. The relative binding affinity of the inhibitors from TP toward HRAR was defined as the “binding degree” (BD), which can be calculated as follows: BD (%) = (Aa − Ab)/Aa × 100, in which Aa and Ab are the peak areas of a compound without and with HRAR in the HPLC chromatograms, respectively.

[5] = DPPH radical scavenging capacity
Protocol: The DPPH radical scavenging capacity assay method of Yin et al. was used. DPPH (0.32 mM) was diluted with MeOH, and this solution (180 µL) was mixed with 30 µL of the sample at each concentration. After 20 min of incubation in a darkroom, the absorbance at 570 nm was recorded on a microplate reader (EL800 Universal Microplate reader, Bio-Tek Instruments, Winooski, VT, USA). DPPH radical scavenging activity was expressed as the percentage inhibition (%) of DPPH in the aforementioned assay system and was calculated as (1 – B/A) × 100, in which A and B are the activities of DPPH without and with the test material, respectively.

For N=C(N)NN [Aminoguanidine, aminoguanidine, reference compound], the “AGEs Inhibition (%)” value ([1]; 20 μg/mL) was 20.75%, the “AGEs Inhibition (%)” value ([1]; 100 μg/mL) was 39.94% and the “AGEs Inhibition (%)” value ([1]; 200 μg/mL) was 75.32%. For the same compound, the “AGEs IC50” value ([1]; mean ± SEM) was 121.96 ± 5.10 µg/mL.

With COc1cc(/C=C/C(=O)O)ccc1O [Compound 1, ferulic acid] the “Sorbitol Content (mg)/lens Wet Weight (g)” value (shortened to “Sorbitol Content”) [2] was 0.29 ± 0.03 mg/g, the inhibition at 5 µg/mL [2] was 80.3 ± 2.38% and the IC50 [3] was 1.11 to 3.2 µM. The “DPPH PAR (%), peak area reduction” value (DPPH-HPLC assay) was 23.53% and the “HRAR binding degree (%)” value [4] was 27.08%.

With O=c1cc(-c2ccc(O)cc2)oc2cc(O)cc(O)c12 [Compound 2, apigenin] the “Sorbitol Content” value [2] was 0.19 ± 0.06 mg/g, the inhibition at 5 µg/mL [2] was 87.1 ± 2.37% and the “AGEs Inhibition (%)” value ([1]; 20 μg/mL) was 8.14%. For the same compound, the IC50 [1] was > 55 µM, the IC50 [3] was 1.11 to 3.2 µM and the “DPPH PAR (%), peak area reduction” value (DPPH-HPLC assay) was 11.28%. For the same compound, the “HRAR binding degree (%)” value [4] was 15.00%.

With O=c1cc(-c2ccc(O)c(O)c2)oc2cc(O[C@@H]3O[C@H](CO)[C@@H](O)[C@H](O)[C@H]3O)cc(O)c12 [Compound 3, luteolin-7-O-glucoside] the “Sorbitol Content” value [2] was 0.07 ± 0.01 mg/g, the inhibition at 5 µg/mL [2] was 95.2 ± 5.97% and the “AGEs inhibition potency relative to aminoguanidine (times higher)” value ([1]; ratio of IC50 values) was 32.23 times. The IC50 [3] was 1.11 to 3.2 µM, the “DPPH PAR (%), peak area reduction” value (DPPH-HPLC assay) was 16.85% and the “HRAR binding degree (%)” value [4] was 26.58%.

For O=c1cc(-c2ccc(O)c(O)c2)oc2cc(O)cc(O)c12 [Compound 4, luteolin], the “Sorbitol Content” value [2] was 0.12 ± 0.02 mg/g, the inhibition at 5 µg/mL [2] was 91.8 ± 5.23% and the “DPPH PAR (%), peak area reduction” value (DPPH-HPLC assay) was 29.36%. For the same compound, the “HRAR binding degree (%)” value [4] was 38.02%.

In the case of COc1cc2oc(-c3ccc(O)c(O)c3)c(OC)c(=O)c2c(O)c1OC [Compound 5, chrysosplenol], the IC50 ([5]; mean ± SEM, listed as Chrysosplenol (5)) is reported as > 250 µM, the “Sorbitol Content” value [2] is reported as 0.26 ± 0.03 mg/g and the inhibition at 5 µg/mL [2] is reported as 82.3 ± 2.39%. The “AGEs Inhibition (%)” value ([1]; 20 μg/mL) was 5.38%, the IC50 [1] was > 55 µM and the IC50 [3] was 1.11 to 3.2 µM. For the same compound, the “DPPH PAR (%), peak area reduction” value (DPPH-HPLC assay) was 7.19% and the “HRAR binding degree (%)” value [4] was 25.54%.

In the case of O=c1c(O)c(-c2ccc(O)cc2)oc2cc(O)cc(O)c12 [Compound 6, kaempferol], the “Sorbitol Content” value [2] is reported as 0.03 ± 0.00 mg/g, the inhibition at 5 µg/mL [2] is reported as 98 ± 6.31% and the IC50 [1] is reported as > 55 µM. For the same compound, the IC50 [3] was 1.11 to 3.2 µM, the “DPPH PAR (%), peak area reduction” value (DPPH-HPLC assay) was 13.97% and the “HRAR binding degree (%)” value [4] was 24.29%.

In the case of COc1ccc(-c2oc3cc(O)c(OC)c(O)c3c(=O)c2OC)cc1 [Compound 7, santin], the IC50 ([5]; mean ± SEM) is reported as > 208 µM, the “AGEs Inhibition (%)” value ([1]; 20 μg/mL) is reported as 13.15% and the IC50 [1] is reported as > 55 µM. The IC50 [3] was > 28 µM, the “DPPH PAR (%), peak area reduction” value (DPPH-HPLC assay) was 0% and the “HRAR binding degree (%)” value [4] was 0%.

With O=C1O[C@H]([C@@H](O)CO)C(O)=C1O [L-ascorbic acid] the “DPPH Inhibition (%)” value ([5]; 3 μg/mL) was 33.71%, the “DPPH Inhibition (%)” value ([5]; 7.5 μg/mL) was 58.34% and the “DPPH Inhibition (%)” value ([5]; 15 μg/mL) was 97.23%. The “DPPH IC50” value ([5]; mean ± SEM) was 6.02 ± 0.37 µg/mL.

In the case of O=c1c(O)c(-c2ccc(O)c(O)c2)oc2cc(O)cc(O)c12 [Quercetin, quercetin, reference compound], the “Sorbitol Content” value [2] is reported as 0.21 ± 0.02 mg/g, the inhibition at 5 µg/mL [2] is reported as 85.7 ± 5.71% and the inhibition at 0.5 µg/mL ([3]; 0.5 μg/mL) is reported as 23.6%. For the same compound, the inhibition at 1 µg/mL ([3]; 1 μg/mL) was 44.8% and the inhibition at 10 µg/mL ([3]; 10 μg/mL) was 81.3%.
